# Laboratory results: patent publication US6080542A, “Plant peptide transport gene” (priority 1997, dated 2000)
# Legend:
# PB1X-9B (pJP9) = test: Growth on peptides, mutant transformed with yeast peptide transport gene; type: cell-based, Saccharomyces cerevisiae
# Experimental: (§1) In addition, untransformed PB1X-9B, PB1X-9B transformed with plasmid pJP9 encoding the above-described yeast peptide transport gene, PB1X-2AΔ and PB1X-2A, the ptr2^+ parental strain to PB1X-2AΔ strain, were also assayed. Each strain was grown overnight in SC media plus uracil (non-transformed) or minus uracil (transformed) plus amino acids to stationary phase and harvested by centrifugation. Cells were then washed twice with sterile dH2 O and resuspended at 5×10^6 cells/ml. 5 μl of each suspension was applied as a small spot to a 2 ml volume of solid media in a 24 well plate. All peptides were suspended in sterile, deionized water and added to an equal volume of SC medium plus the appropriate amino acids and uracil when required. The medium for each assay thus consisted of SC medium plus or minus uracil supplemented with 80 μM of a specific peptide and auxotrophic requirements minus the amino acid components of the added peptide. The plates were incubated at 30° C. for 72 hrs. and then scored for growth.
# [1] = biological target: T1, yeast peptide transport system (Saccharomyces cerevisiae, UniProt P32901); test: Competition for L-leucyl-L-[3H]leucine uptake, PB1X-9B[pJP9]; type: cell-based; conditions: pH 5.5
# T1 construct: The ptr2 gene encodes a 602 amino acid hydrophobic polypeptide with 12 putative hydrophobic segments; expressed in transfected cells; host or cells: S. cerevisiae peptide transport mutant PB1X-9B (ptr2-2) transformed with pJP9
# T1 sequence (P32901 1-601): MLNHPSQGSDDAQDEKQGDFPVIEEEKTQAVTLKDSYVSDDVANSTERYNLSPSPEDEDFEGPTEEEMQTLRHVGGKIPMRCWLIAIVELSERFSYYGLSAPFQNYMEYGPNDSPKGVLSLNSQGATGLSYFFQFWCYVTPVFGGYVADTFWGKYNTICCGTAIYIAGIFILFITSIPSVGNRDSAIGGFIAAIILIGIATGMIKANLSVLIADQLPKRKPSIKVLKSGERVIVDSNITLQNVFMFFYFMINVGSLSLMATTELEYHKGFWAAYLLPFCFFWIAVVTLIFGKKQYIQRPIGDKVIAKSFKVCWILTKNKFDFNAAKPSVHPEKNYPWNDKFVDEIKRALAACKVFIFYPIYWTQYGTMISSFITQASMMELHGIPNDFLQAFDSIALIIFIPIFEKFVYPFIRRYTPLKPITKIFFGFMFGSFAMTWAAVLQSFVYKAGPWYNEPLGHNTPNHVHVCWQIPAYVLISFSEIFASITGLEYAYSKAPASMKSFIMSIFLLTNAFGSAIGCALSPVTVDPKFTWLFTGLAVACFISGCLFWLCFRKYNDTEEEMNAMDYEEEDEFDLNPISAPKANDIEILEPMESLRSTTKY
# Experimental: (§2) L-leucyl-L [^3 H]leucine trifluoroacetic acid (TFA) was synthesized by standard solution phase techniques (Naider, F. et al., J. Biol. Chem. 249:9-20 (1974)). Uptake of L-leucyl-L-[H]leucine was performed as by Island, M. D. et al (J. Bacteriol. 169:2132-2136 (1987)), with the following modifications. Cells were grown to late log phase (26×10^7 cells/ml) overnight in SC with 2% glucose, 1 mg/ml allantoin plus amino acids to supplement auxotrophic markers. To induce peptide transport. 5-15 ml from this culture was added to 100 ml fresh medium such that the density was 3.0×10^6 cells/ml. This culture was allowed to grow (approx. 2 hrs.) to a density of 6.0×10^6 cells/ml and then harvested by centrifugation. The pelleted cells were washed twice with 10 ml cold dH2 O and suspended in cold 2% glucose to a final concentration of 2×10^8 cells/ml and incubated at 30° C. for 15 min. 500 μl of cells were then added to an equal volume of reaction mixture (30° C.) and incubated at 30°-C. At 20, 40, 60, 90, and 120 sec. intervals, 190 μl portions were removed, filtered over filters (pore size, 0.45 μm; GN-6; Gelman Sciences, Inc., Ann Arbor, Mich.) and washed 2 times with 5 ml cold, sterile dH2 O and once with 5 ml dH2 O at room temperatures. Filters were placed in scintillation vials with 5 ml of Budget-Solve scintillation cocktail (Research Products International Corp., Mount Prospect, Ill.) and counted (liquid scintillation counter; LS-7000; Beckman Instruments, Inc., Fullerton, Calif.). The final concentration of the components in the uptake assay was 1% glucose, 40 mM sodium citrate-potassium phosphate buffer (pH 5.5), and 1.5×105 M L-leucyl-L-[^3 H]leucine (specific activity, 10 mCi/mmole). Uptake is expressed as nanomoles per mg dry weight.
# ATPTR2Ap = test: Uptake of L-leucyl-L-[3H]leucine and competition, PB1X-9B[pPTF4]; conditions: PB1X-9B[pPTF4]; pH 5.5; dileucine and leucine at 100-fold
# Experimental: The kinetics of ATPTR2A-mediated transport of peptides in yeast was evaluated by transforming pPTF4 into the S. cerevisiae peptide transport mutant, PB1X-9B and measuring the uptake of tritiated Leu-Leu dipeptide.
# as §2
# PB1X-9B = test: Growth on peptides as amino acid source, peptide transport mutant; type: cell-based, Saccharomyces cerevisiae; conditions: PBIX-9B; 80 μM peptide in SC medium, 30° C., 72 hrs
# Experimental: as §1
# PB1X-9B (pPTF4) = test: Growth on peptides, mutant transformed with plant gene ATPTR2A; type: cell-based, Saccharomyces cerevisiae
# Experimental: as §1
# PB1X-2A = test: Growth on peptides, parental strain; type: cell-based, Saccharomyces cerevisiae; conditions: data not shown
# Experimental: as §1, with “Thus, the peptide transport mutant PB1X-9B and deletion strain PB1X-2AΔ transformed with plasmids pPTF4 (ATPTR2A) or pDTF1 (ATPTR2B) were grown on various peptides to assess the specificity of the plant peptide transporter. In” for “In”
# Chain of ATPTR2Ap (as listed by the source): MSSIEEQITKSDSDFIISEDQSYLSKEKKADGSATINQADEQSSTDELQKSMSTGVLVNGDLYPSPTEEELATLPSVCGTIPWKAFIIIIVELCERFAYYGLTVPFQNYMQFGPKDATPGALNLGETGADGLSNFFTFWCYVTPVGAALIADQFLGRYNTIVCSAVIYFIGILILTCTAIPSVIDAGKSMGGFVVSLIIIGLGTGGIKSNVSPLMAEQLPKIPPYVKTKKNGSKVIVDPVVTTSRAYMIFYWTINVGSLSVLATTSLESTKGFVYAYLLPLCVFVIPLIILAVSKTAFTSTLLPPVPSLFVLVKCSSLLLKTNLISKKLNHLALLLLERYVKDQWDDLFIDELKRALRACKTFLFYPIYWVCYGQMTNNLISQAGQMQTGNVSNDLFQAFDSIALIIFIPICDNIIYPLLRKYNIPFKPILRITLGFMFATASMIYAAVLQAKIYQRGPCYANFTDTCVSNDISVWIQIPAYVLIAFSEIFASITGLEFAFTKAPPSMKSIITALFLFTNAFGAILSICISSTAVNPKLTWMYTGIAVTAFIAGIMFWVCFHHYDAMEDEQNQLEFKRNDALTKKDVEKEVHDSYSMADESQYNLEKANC
substance,measurement,setting,value
Met-Met-Leu: tripeptide (MML),growth on peptide (in words),PB1X-9B (pJP9); PB1X-9B transformed with pJP9,showed growth on all peptides except
same,growth on peptide,"PB1X-9B (pJP9); PBIX-9B (pJP9), 80 μM peptide in SC medium, 30° C., 72 hrs",-
same,competition for uptake of [3H]-dileucine,[1],uptake competition similar to that seen for Leu-Leu
same,competition for uptake of [3H]-dileucine,ATPTR2Ap,uptake competition similar to that seen for Leu-Leu
same,growth on peptide,PB1X-9B,-
same,growth on peptide,"PB1X-9B (pPTF4); PBIX-9B (pPTF4), 80 μM peptide in SC medium, 30° C., 72 hrs",-
same,growth on / utilization of peptide (in words),PB1X-9B (pPTF4); plant peptide transport gene (pPTF4),able to utilize
same,utilization of peptide for growth (in words),PB1X-2A,did not utilize
